Experimental data as given in PubChem BioAssay (NCI).
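Step 1: Grow cells in 96-well plates. Step 2: Expose to compound for 48 hours at 5 concentrations. Step 3: Interpolate endpoints linearly; if unreached, use highest concentration. GI50 = concentration required for 50% inhibition of growth. TGI is the concentration that stops growth completely.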

Tests used:
Assay in all cases: NCI tumour cell line growth inhibition, 48 h
[1] = system: SN12C renal
[2] = system: LOX IMVI melanoma
[3] = system: SNB-19 CNS
[4] = system: MOLT-4 leukemia
[5] = system: PC-3 prostate
[6] = system: HT29 colon
[7] = system: T-47D breast
[8] = system: RPMI-8226 leukemia
[9] = system: EKVX NSCLC
[10] = system: SF-268 CNS

C=C1C(=O)O[C@H]2[C@H]1CC/C(COC(=O)c1ccc(Cl)nc1)=C\CC[C@@]1(C)O[C@@H]21
GI50 [1]: 2.15 µM
TGI [1]: 5.42 µM
GI50 [2]: 1.58 µM
TGI [2]: 3.33 µM
GI50 [3]: 7.55 µM
TGI [3]: 20.1 µM
GI50 [4]: 2.57 µM
TGI [4]: 7.2 µM
GI50 [5]: 10.2 µM
TGI [5]: 23.1 µM
GI50 [6]: 1.66 µM
TGI [6]: 4.11 µM
GI50 [7]: 1.79 µM
TGI [7]: 5.3 µM
GI50 [8]: 1.58 µM
TGI [8]: 4.87 µM
GI50 [9]: 3.41 µM
TGI [9]: 13.6 µM
GI50 [10]: 2.62 µM
TGI [10]: 9.49 µM

O=C(Nc1ccc(Br)cc1)c1ccc(Cl)c(Cl)c1
GI50 [1]: 3.21 µM
TGI [1]: > 100 µM
GI50 [2]: 2.56 µM
TGI [2]: 7.67 µM
GI50 [3]: 3.87 µM
TGI [3]: > 100 µM
GI50 [4]: 3.17 µM
TGI [4]: > 100 µM
GI50 [5]: 2.47 µM
TGI [5]: > 30.8 µM
GI50 [6]: 3.42 µM
TGI [6]: > 100 µM
GI50 [7]: 2 µM
TGI [7]: > 27.9 µM
GI50 [8]: 3.15 µM
TGI [8]: > 100 µM
GI50 [9]: 1.99 µM
TGI [9]: > 100 µM
GI50 [10]: 4.51 µM
TGI [10]: > 100 µM
